# Data: PubChem BioAssay (NCI)
# “And” between values parts separate entries of the source, which are not always exact repeats. Identical values can stand only once.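 Following 48 hours of exposure in 96-well plates, responses at five concentrations were used to interpolate endpoints linearly. Here, GI50 denotes the concentration required for 50% inhibition of growth. TGI is the concentration that stops growth completely.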
# Columns and labels:
# Experiment in all cases: NCI-60 cell line screen, 48 h
# [1] = tested on: CAKI-1 renal
# [2] = tested on: A498 renal
# [3] = tested on: MALME-3M melanoma
# [4] = tested on: SF-539 CNS
# [5] = tested on: ACHN renal
# [6] = tested on: K-562 leukemia
# [7] = tested on: EKVX NSCLC
# [8] = tested on: M14 melanoma
# [9] = tested on: UACC-257 melanoma
# [10] = tested on: RXF 393 renal
Compound,TGI [1],TGI [2],TGI [3],TGI [4],TGI [5],TGI [6],TGI [7],TGI [8],TGI [9],GI50 [1],GI50 [2],GI50 [4],GI50 [6],GI50 [7],GI50 [8],GI50 [3],GI50 [5],GI50 [9],GI50 [10],TGI [10]
COC(=O)/C=C(C)/C=C/c1c(C)c(C(C)=O)c(C)n1C,> 100 µM,> 100 µM,> 100 µM,> 100 µM,> 100 µM,> 100 µM,> 100 µM,> 100 µM,> 100 µM,,,,,,,,,,,
CCOP(=O)(OCC)C(NC(c1ccccc1)c1ccccc1)c1ccsc1 (stereo not drawn),33.2 µM,49.6 µM,,43.1 µM,,56.5 µM,41.6 µM,30.5 µM,,16 µM,30.8 µM,24 µM,14.9 µM,21.7 µM,16.5 µM,,,,,
O=C(CS(=O)c1nc2ccccc2nc1-c1ccccc1)Nc1ccc(Cl)cc1 (stereo not drawn),57.5 µM,43 µM,46.7 µM,> 100 µM,51.1 µM,,> 100 µM,> 100 µM,77.3 µM,20.1 µM,19 µM,14 µM,,29.5 µM,28.4 µM,19.1 µM,21.4 µM,24.7 µM,30.4 µM,84.3 µM
CCCCCCCCCCCCCP(=O)(OC)OC,32.7 µM,,38.3 µM,30.9 µM,32.4 µM,45.2 µM,39.5 µM,34.7 µM,33.7 µM,,,,,,,,,,,48.4 µM
O=C1C(c2ccccc2)=[N+]([O-])c2cc([N+](=O)[O-])ccc21,,> 100 µM,36.1 µM,57.3 µM,56.9 µM,58.5 µM,34.5 µM,,40.5 µM,,,,,,,,,,,34.9 µM
O=C(CO)CC(=O)C(=O)Nc1cccc(C(F)(F)F)c1,> 100 µM,,> 100 µM,> 100 µM,> 100 µM,> 100 µM,,> 100 µM,> 100 µM,,,,,,,,,,,
Oc1ccccc1/C=N\Nc1ccccc1,21.4 µM,,21.7 µM,5.59 µM,62.2 µM,,> 100 µM,19.4 µM,> 100 µM,1.64 µM,,2.18 µM,,12.9 µM,3.7 µM,3.72 µM,2.84 µM,31.1 µM,19.1 µM,77.9 µM
CC(=O)OCC1OC([S-])C(OC(C)=O)C(OC(C)=O)C1OC(C)=O.[Au+].c1ccc(CN2[CH-]N(Cc3ccccc3)C(c3ccccc3)=C2c2ccccc2)cc1,3.37 µM,,4.29 µM and 1.24 µM,10.4 µM and 3.81 µM,3.62 µM and 2.72 µM,7.8 µM and 15.1 µM,9.53 µM and 4.27 µM,5.66 µM and 3 µM,9.22 µM and 3.12 µM,0.866 µM,,2.96 µM and 0.855 µM,2.59 µM and 0.397 µM,2.92 µM and 0.523 µM,2.27 µM and 0.798 µM,1.93 µM and 0.278 µM,1.87 µM and 0.674 µM,2.26 µM and 1 µM,1.71 µM and 0.527 µM,3.19 µM and 1.26 µM
CC1(C)C2=CCCC(=O)[C@@]2(C)CC[C@@H]1O,> 100 µM,,,> 100 µM,> 100 µM,> 100 µM,> 100 µM,> 100 µM,> 100 µM,,,,,,,,,,,> 100 µM
COc1ccc(-c2nsc3c2NC(=O)CC3c2cccc(F)c2)cc1 (stereo not drawn),> 100 µM,,> 100 µM,> 100 µM,> 100 µM,> 100 µM,,> 100 µM,,4.69 µM,,5.19 µM,2.65 µM,,3.44 µM,6.08 µM,5.95 µM,,4.04 µM,> 100 µM
CC[C@@]1(O)C(=O)OCc2c1cc1n(c2=O)Cc2cc3cccc(N)c3nc2-1,,60.3 µM,> 100 µM,17 µM,10.3 µM,> 100 µM,> 100 µM,> 100 µM,> 100 µM,,7.17 µM,3.7 µM,> 100 µM,33 µM,9.27 µM,84.5 µM,2.81 µM,> 100 µM,7.1 µM,94.7 µM
NS(=O)(=O)c1ccc(-n2nc(-c3ccccc3)cc2-c2cc(O)ccc2O)cc1,> 100 µM,,,,> 100 µM,> 100 µM,> 100 µM,80.8 µM,> 100 µM,> 100 µM,,,40 µM,> 100 µM,31.9 µM,,89.8 µM,34.4 µM,> 100 µM,> 100 µM
Nc1nc(N)c(CCCCc2ccccc2)c(/C=C/c2ccc([N+](=O)[O-])cc2)n1,31.6 µM,,9.17 µM,5.62 µM,18.2 µM,,> 100 µM,9.24 µM,22.2 µM,,,,,,,,,,,
CCOC(=O)Nc1cc2c(c(N)n1)N=C(c1ccccc1)CN2,27.7 µM,22.2 µM,50.8 µM,,21.6 µM,,46.6 µM,> 49 µM,50.4 µM,,,,,< 0.0001 µM,< 0.0001 µM,< 0.0001 µM,< 0.0001 µM,,,29.2 µM
CN1CCN(C(=O)[C@@]2(C)CC[C@]3(C)CC[C@]4(C)C(=CC[C@@H]5[C@@]6(C)CC[C@H](OC(=O)c7cccnc7)C(C)(C)[C@@H]6CC[C@]54C)[C@@H]3C2)CC1,,18.4 µM,3.54 µM,3.06 µM,3.39 µM,6.36 µM,3.86 µM,3.1 µM,3.53 µM,,4.38 µM,1.6 µM,2.15 µM,1.74 µM,1.62 µM,1.78 µM,1.88 µM,1.83 µM,1.66 µM,3.33 µM
O=C1NC(c2cccc3ccccc23)Nc2ccccc21 (stereo not drawn),1.82 µM,0.0848 µM,43.7 µM,0.0329 µM and 0.165 µM,> 54.7 µM,,> 100 µM,0.672 µM,32.6 µM,0.0282 µM,,0.0105 µM,0.00758 µM,0.0278 µM,0.0177 µM,0.0263 µM,0.0383 µM,,,
CC1(C)C=C(N2CCN(C3=CC(C)(C)NC(C)(C)C3)CC2)CC(C)(C)N1,> 100 µM,> 100 µM,,> 100 µM,> 100 µM,> 100 µM,> 100 µM,> 100 µM,> 100 µM,,,,,,,,,,,
Cc1ccc2c(c1)C(=O)/C(=C/c1cccc(OCC(=O)c3ccc(Cl)cc3)c1)CS2,37 µM,,46.1 µM,36.6 µM,21.2 µM,8.2 µM,40.8 µM,27.4 µM,33.3 µM,12.4 µM,,17.8 µM,2.45 µM,8.65 µM,4.07 µM,15.5 µM,8.72 µM,13.9 µM,16.8 µM,34.8 µM
CC(=O)OC(C)(C)C[N+](=O)[O-],> 100 µM,,> 100 µM,> 100 µM,> 100 µM,> 100 µM,> 100 µM,> 100 µM,> 100 µM,,,,,,,,,,,> 100 µM
C#Cc1cccc(Nc2ncnc3ccc(-c4cnc(N)nc4)cc23)c1,4.93 µM,,12.7 µM,11.9 µM,10.3 µM,> 100 µM,2.93 µM,15.7 µM,46 µM,1.09 µM,,2.81 µM,3.42 µM,0.242 µM,3.73 µM,1.73 µM,0.542 µM,6.57 µM,0.693 µM,3.44 µM
CC1OC(OC2C(O)C(OCCc3ccc(O)c(O)c3)OC(CO)C2OC(=O)/C=C/c2ccc(O)c(O)c2)C(O)C(O)C1O (stereo not drawn),> 100 µM,,,40.9 µM,37 µM,> 100 µM,> 100 µM,> 100 µM,> 100 µM,40 µM,,22.9 µM,15.5 µM,27.6 µM,> 100 µM,,18.9 µM,> 100 µM,,
CSc1nc(SC)c2c(C)c(Br)[nH]c2n1,> 100 µM,> 100 µM,> 100 µM,> 100 µM,> 100 µM,,> 100 µM,> 100 µM,,,,,,,,,,,,> 100 µM
Cc1nccc2c3ccc(OCc4cn(-c5ccc(Br)cc5)nn4)cc3n(CCCc3ccccc3)c12,,> 100 µM,3.57 µM,3.4 µM,3.52 µM,,> 100 µM,2.47 µM,4.4 µM,,> 100 µM,1.72 µM,,> 100 µM,1.14 µM,1.62 µM,1.23 µM,2.06 µM,,
CN(CCc1ccccn1)/[N+]([O-])=N/O (tested in a mixture with another compound),> 100 µM,,> 100 µM,> 100 µM,> 100 µM,> 100 µM,> 100 µM,> 100 µM,> 100 µM,,,,,,,,,,,> 100 µM
O=C1c2c(c3c4ccccc4n(CCCCCCN4CCOCC4)c3c3[nH]c4ccccc4c23)C(=O)N1O,28.9 µM,25.4 µM,3.76 µM,4.03 µM,,,> 82.5 µM,30.7 µM,56.6 µM,8.98 µM,9.15 µM,1.9 µM,,> 43.1 µM,4.02 µM,1.74 µM,4.14 µM,24.5 µM,7.61 µM,25.9 µM
